According to patent publication US9492471B2, “Methods of treating a disease or disorder associated with Bruton'S Tyrosine Kinase” (Celgene Avilomics Research, Inc., priority 2013, dated 2016):
Where two headings read alike, the source gives them in different places.

Assays:
Assay in all cases: HotSpot kinase profiling
Format in all cases: biochemical
CAMK2b = target: T1, CAMK2b (Homo sapiens, UniProt Q13554)
T1 construct: purchased Reaction Biology Corp
Outline: (§1)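 Radio-isotope P81 filtration format. Substrate + required cofactors in reaction buffer, kinase added, 2 h RT. Stop, wash with 0.1% phosphoric acid, detect. % inhibition vs DMSO; mean of duplicates where repeated.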

RET = target: T2, RET (Homo sapiens, UniProt P07949)
T2 construct: purchased Reaction Biology Corp
T2 sequence (P07949 29-1114): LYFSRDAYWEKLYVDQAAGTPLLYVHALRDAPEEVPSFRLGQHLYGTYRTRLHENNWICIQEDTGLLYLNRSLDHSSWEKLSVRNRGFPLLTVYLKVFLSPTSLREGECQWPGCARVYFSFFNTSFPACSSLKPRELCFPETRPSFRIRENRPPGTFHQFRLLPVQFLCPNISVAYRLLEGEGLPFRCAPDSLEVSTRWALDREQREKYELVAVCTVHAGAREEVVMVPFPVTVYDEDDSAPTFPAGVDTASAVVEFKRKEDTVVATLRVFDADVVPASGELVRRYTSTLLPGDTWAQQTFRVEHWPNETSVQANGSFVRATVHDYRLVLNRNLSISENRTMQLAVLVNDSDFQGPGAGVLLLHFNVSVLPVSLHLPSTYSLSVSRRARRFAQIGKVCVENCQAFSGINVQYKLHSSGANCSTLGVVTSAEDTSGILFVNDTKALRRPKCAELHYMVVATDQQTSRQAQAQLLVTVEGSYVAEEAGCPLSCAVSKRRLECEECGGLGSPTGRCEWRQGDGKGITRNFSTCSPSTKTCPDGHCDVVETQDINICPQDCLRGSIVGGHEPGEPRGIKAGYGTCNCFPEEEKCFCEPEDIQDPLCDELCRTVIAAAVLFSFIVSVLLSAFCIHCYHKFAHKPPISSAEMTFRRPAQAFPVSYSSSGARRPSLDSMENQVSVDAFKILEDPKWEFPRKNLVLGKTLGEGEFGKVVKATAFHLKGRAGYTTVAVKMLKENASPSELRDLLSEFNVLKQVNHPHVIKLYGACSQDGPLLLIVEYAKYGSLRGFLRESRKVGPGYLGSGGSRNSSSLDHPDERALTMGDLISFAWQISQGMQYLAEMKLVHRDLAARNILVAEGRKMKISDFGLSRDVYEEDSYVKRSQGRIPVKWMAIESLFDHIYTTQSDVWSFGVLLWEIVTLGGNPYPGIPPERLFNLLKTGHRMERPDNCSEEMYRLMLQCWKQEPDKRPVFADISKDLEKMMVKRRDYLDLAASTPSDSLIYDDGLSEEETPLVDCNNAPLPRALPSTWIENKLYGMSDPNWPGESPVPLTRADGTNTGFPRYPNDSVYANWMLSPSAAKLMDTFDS
Outline: as §1

MSK2/RPS6KA4 = target: T3, MSK2/RPS6KA4 (Homo sapiens, UniProt O75676)
T3 construct: purchased Reaction Biology Corp
T3 sequence (O75676 whole entry): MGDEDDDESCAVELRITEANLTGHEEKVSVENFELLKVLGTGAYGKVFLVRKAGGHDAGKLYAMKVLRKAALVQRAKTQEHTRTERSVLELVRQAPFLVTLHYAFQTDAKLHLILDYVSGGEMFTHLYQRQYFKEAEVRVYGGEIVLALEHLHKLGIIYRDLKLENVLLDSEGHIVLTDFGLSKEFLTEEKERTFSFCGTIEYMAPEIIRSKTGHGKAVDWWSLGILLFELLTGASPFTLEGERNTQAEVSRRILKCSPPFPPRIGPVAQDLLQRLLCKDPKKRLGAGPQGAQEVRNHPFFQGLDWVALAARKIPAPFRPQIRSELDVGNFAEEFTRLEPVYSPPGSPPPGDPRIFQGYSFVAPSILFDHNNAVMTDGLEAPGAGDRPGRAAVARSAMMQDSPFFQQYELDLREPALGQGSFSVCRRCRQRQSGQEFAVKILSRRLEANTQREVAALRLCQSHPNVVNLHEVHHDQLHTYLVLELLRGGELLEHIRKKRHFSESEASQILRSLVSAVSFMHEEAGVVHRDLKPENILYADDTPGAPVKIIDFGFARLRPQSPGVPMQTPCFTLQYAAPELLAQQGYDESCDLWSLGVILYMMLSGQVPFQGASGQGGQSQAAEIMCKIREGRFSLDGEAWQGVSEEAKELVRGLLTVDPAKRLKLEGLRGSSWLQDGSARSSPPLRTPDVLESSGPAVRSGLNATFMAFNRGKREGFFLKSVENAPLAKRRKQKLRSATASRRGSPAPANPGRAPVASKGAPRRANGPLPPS
Outline: as §1

ALK2/ACVR1 = target: T4, ALK2/ACVR1 (Homo sapiens, UniProt Q04771)
T4 construct: purchased Reaction Biology Corp
Outline: as §1

CAMK1g = target: T5, CAMK1g (Homo sapiens, UniProt Q96NX5)
T5 construct: purchased Reaction Biology Corp
T5 sequence (Q96NX5 whole entry): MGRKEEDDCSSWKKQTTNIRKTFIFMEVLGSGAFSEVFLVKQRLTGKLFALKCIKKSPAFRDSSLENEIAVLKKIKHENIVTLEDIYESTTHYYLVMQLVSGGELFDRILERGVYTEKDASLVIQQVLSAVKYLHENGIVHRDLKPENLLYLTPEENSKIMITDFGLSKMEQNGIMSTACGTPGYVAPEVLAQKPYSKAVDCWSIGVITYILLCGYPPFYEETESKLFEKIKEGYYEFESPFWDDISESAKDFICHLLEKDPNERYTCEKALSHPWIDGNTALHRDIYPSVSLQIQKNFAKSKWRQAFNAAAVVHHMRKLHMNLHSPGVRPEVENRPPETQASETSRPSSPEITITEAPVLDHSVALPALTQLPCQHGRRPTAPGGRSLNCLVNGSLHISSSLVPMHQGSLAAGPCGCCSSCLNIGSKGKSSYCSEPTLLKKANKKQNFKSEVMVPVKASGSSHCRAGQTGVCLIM
Outline: as §1

PDK1/PDPK1 = target: T6, PDK1/PDPK1 (Homo sapiens, UniProt O15530)
T6 construct: purchased Reaction Biology Corp
T6 sequence (O15530 1-556): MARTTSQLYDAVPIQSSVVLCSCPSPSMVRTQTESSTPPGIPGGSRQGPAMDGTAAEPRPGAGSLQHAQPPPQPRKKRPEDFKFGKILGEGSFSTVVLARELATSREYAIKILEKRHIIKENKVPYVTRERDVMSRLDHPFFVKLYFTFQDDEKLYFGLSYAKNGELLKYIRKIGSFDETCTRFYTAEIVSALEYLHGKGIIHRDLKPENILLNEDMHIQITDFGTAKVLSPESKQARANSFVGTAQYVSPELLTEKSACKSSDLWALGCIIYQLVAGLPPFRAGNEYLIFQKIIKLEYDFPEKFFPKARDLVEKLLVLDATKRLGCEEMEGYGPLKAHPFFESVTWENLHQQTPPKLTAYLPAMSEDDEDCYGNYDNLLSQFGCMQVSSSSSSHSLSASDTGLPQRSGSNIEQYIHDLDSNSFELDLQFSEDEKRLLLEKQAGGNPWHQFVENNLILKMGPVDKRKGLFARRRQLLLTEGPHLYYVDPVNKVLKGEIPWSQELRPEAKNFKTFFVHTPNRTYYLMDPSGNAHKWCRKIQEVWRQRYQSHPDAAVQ
Outline: as §1

LRRK2 = target: T7, LRRK2 (Homo sapiens, UniProt Q5S007)
T7 construct: purchased Reaction Biology Corp
T7 sequence (Q5S007 whole entry): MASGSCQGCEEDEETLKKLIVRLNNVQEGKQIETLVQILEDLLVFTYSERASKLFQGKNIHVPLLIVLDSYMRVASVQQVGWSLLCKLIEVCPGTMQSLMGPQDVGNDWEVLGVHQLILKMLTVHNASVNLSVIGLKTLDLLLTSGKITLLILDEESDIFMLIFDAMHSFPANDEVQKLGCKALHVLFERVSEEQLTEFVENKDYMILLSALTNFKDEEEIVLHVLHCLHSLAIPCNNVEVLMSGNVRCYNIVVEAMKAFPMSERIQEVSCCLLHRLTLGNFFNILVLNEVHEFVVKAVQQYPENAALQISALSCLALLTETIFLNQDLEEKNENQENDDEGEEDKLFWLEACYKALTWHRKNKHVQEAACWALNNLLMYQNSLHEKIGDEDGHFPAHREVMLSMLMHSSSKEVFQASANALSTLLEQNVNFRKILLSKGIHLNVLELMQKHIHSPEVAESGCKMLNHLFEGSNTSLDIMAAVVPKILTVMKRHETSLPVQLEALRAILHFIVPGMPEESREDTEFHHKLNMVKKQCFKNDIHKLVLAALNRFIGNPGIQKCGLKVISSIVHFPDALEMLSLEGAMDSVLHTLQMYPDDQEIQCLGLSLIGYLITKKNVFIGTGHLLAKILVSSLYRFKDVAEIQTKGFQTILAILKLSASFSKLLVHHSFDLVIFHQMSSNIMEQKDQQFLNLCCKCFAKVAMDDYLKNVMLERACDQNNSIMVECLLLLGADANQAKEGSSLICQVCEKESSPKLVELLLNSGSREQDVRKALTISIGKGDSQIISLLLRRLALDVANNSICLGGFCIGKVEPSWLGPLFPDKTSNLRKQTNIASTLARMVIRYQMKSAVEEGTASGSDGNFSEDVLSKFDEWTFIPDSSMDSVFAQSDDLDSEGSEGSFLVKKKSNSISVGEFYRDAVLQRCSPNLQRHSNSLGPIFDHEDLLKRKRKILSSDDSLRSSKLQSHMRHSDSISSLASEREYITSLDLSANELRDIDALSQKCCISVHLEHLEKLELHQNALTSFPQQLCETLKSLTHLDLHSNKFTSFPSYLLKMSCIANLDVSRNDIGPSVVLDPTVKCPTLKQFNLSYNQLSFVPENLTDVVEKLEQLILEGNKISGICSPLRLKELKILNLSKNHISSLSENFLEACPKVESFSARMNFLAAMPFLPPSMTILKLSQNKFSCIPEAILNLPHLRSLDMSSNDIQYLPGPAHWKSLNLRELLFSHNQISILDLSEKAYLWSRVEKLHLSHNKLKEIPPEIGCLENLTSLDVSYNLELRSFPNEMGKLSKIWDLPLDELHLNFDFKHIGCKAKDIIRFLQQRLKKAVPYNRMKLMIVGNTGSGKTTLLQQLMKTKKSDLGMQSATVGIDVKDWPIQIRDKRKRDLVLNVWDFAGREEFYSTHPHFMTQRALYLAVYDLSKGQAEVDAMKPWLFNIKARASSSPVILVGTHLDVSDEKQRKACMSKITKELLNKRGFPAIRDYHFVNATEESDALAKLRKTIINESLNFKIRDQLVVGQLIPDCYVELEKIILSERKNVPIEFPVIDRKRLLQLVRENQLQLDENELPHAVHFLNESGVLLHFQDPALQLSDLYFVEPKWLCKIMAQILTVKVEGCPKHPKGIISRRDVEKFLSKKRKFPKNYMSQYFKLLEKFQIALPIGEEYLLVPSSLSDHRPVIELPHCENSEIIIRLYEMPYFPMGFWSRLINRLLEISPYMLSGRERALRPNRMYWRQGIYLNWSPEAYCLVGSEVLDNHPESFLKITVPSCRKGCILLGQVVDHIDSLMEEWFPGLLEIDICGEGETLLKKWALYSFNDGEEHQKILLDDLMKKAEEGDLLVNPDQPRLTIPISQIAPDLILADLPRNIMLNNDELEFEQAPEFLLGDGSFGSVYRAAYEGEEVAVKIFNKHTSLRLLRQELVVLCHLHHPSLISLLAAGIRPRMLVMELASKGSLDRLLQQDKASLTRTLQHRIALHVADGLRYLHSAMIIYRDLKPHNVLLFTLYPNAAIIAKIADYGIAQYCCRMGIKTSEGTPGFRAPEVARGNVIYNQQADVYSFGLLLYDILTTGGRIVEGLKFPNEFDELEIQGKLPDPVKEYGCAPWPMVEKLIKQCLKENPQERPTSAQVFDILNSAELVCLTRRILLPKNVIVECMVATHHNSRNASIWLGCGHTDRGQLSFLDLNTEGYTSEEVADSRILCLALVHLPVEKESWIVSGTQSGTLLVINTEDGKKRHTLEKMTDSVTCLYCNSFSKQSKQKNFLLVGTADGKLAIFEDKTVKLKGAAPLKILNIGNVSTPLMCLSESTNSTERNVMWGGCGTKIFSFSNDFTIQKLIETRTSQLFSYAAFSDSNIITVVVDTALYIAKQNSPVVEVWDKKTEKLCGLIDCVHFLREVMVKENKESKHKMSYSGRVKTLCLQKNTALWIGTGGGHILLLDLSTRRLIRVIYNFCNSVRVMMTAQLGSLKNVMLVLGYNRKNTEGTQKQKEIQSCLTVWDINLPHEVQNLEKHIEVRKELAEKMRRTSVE
Outline: as §1

JAK3 = target: T8, JAK3 (Homo sapiens, UniProt P52333)
T8 construct: purchased Reaction Biology Corp
T8 sequence (P52333 1-1124): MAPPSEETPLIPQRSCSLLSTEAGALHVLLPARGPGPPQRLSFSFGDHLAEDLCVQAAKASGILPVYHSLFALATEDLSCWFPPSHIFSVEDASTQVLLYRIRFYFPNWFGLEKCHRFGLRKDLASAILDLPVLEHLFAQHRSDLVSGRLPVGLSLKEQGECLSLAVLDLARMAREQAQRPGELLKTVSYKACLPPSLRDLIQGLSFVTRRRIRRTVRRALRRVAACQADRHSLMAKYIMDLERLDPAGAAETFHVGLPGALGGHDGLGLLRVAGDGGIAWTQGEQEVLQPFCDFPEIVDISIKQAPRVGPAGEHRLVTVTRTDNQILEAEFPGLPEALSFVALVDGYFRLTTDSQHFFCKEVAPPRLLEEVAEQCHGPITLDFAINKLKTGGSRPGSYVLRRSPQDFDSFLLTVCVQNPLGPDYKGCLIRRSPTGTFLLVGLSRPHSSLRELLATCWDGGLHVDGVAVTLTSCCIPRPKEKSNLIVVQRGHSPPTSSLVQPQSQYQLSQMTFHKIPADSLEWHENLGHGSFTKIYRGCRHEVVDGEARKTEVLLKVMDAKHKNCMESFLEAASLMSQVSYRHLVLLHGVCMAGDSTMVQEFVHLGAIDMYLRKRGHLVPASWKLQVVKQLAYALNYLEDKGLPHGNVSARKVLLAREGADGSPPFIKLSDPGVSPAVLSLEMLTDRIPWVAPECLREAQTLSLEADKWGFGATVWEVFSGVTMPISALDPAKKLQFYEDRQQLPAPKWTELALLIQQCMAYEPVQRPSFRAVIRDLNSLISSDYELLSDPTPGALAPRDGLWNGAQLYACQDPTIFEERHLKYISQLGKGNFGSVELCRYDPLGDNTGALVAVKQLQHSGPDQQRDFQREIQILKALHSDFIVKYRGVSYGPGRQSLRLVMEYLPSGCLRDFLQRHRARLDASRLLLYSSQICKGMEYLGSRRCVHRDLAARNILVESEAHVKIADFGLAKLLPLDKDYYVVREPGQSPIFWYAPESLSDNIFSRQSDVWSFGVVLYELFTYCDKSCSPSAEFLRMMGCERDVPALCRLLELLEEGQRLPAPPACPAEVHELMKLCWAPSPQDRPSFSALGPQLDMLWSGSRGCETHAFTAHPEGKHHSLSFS
Outline: as §1

[1] = read-out: % Enzyme Activity (relative to DMSO controls) Run 1
[2] = read-out: % Enzyme Activity (relative to DMSO controls) Run 2

## C=CC(=O)Nc1cccc(Nc2nc(Nc3ccc(OCCOC)c(F)c3)ncc2F)c1 [Compound 2]
CAMK2b
  inhibition at 3 µM: 3.89%
CAMK2b; [1]
  remaining activity at 3 µM: 96.4%
CAMK2b; [2]
  remaining activity at 3 µM: 95.8%
RET
  inhibition at 3 µM: 86.6%
RET; [1]
  remaining activity at 3 µM: 13.2%
RET; [2]
  remaining activity at 3 µM: 13.6%
MSK2/RPS6KA4
  inhibition at 3 µM: -0.36%
MSK2/RPS6KA4; [1]
  remaining activity at 3 µM: 103%
MSK2/RPS6KA4; [2]
  remaining activity at 3 µM: 97.4%
ALK2/ACVR1; [1]
  remaining activity at 3 µM: 385%
ALK2/ACVR1; [2]
  remaining activity at 3 µM: 385%
CAMK1g
  inhibition at 3 µM: -0.72%
CAMK1g; [1]
  remaining activity at 3 µM: 100%
CAMK1g; [2]
  remaining activity at 3 µM: 101%
PDK1/PDPK1
  inhibition at 3 µM: -5.96%
PDK1/PDPK1; [1]
  remaining activity at 3 µM: 107%
PDK1/PDPK1; [2]
  remaining activity at 3 µM: 105%
LRRK2
  inhibition at 3 µM: 65.9%
LRRK2; [1]
  remaining activity at 3 µM: 33%
LRRK2; [2]
  remaining activity at 3 µM: 35.1%
JAK3
  inhibition at 3 µM: 97.4%
JAK3; [1]
  remaining activity at 3 µM: 2.53%
JAK3; [2]
  remaining activity at 3 µM: 2.73%
